Data on 18 molecules can be found in US20240166624A1, “PPARG INVERSE AGONISTS AND USES THEREOF” (Flare Therapeutics Inc., priority 2021, published 2024).

Assay [1] concerns ANGPTL4, a PPARG target gene, in HT1197 (RXRA S427F mutation) cells. As to the kind of experiment: Bladder cancer pharmacodynamic assay, HT1197 cell assay (qPCR of ANGPTL4). Type of assay: cell-based. As to conditions: Homo sapiens, 24 hours, 100 nM compound, relative to DMSO control. The method, then:
Bladder Cancer Pharmacodynamic Assay
5637 (PPARG amplified) and HT1197 (RXRA S427F mutation) cells were used for assessment of modulation of PPARG target genes using quantitative PCR. Cells were treated for 24 hours with PPARG inverse agonists prior to analysis of FABP4 (IDT, Cat: Hs.PT 58.20106818) and ANGPTL4 (IDT, Cat: Hs.PT 58.25480012) expression, with expression of the housekeeping gene TBP (IDT, Cat: Hs.PT 58v.39858774) used to normalize expression across samples. Quantitative PCR was performed using an ABI QuantStudio 7 Flex Reaction system. Data were analyzed and reported relative to DMSO control using the comparative Ct method (ΔΔCt).

The target of assay [2] is T1, PPARG/RXRA LBD heterodimer (Homo sapiens, UniProt P37231).
T1 construct: His-TEV-Q203-Y477; Uniprot ID P37231-2; made in house; host or cells: E. coli
T1 sequence (P37231 203-477 isoform P37231-2): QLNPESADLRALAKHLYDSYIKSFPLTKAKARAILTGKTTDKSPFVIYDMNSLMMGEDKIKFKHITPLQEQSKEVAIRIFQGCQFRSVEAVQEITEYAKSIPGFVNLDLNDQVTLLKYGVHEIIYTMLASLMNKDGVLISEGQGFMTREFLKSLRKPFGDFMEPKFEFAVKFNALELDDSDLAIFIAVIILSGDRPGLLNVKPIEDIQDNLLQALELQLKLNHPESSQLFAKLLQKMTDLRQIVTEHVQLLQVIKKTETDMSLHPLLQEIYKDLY
T1 sequence (P19793 228-462 partner limits assumed): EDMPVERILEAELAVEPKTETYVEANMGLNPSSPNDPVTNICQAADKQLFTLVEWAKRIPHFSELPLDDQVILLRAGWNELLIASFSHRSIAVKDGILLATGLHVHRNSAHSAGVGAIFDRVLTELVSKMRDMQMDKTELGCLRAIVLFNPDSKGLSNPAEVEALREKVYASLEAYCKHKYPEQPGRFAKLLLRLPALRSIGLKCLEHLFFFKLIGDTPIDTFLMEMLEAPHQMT
As to the kind of experiment: PPARγ-MED1 blockade assay (TR-FRET, biotinylated MED1 LxxLL peptide). Type of assay: biochemical. As to conditions: WT PPARG LBD/WT RXRA LBD, 80 nM Rosiglitazone, 3 hours. The procedure:
PPARγ-MED1 Blockade Assay:
Compound potency (IC50) and maximal extent of MED1 repulsion to PPARG were assessed a TR-FRET binding assay measuring association of a biotinylated MED1 LxxLL peptide (Biotin-[…]-amide) to PPARG/RXRA LBD heterodimer. Specifically, a 20 microliters of TR-FRET master mix consisting of 2 nM WT PPARG LBD (E. coli expressed, His-TEV-Q203-Y477; Uniprot ID P37231-2), 2 nM WT RXRA LBD (E. coli expressed, Flag-TEV-E228-T462; […]. Mixtures were incubated for 3 hours and read in an EnVision plate reader (Perkin Elmer) with Ex/Em 615/665. To determine the potency (IC50) and extent of MED1 repulsion, TR-FRET ratios were normalized to the average ratio of DMSO control wells (0%) and to the average minimum ratio for positive control compound (GW9662 (2-chloro-5-nitrobenzanilide); defined as 100%) in CDD Vault and analyzed using the Levenberg-Marquardt algorithm.

Assay [3] concerns the target T2, PPARG/RXRA LBD heterodimer (Homo sapiens, UniProt P37231).
T2 construct: His-TEV-Q203-Y477; Uniprot ID P37231-2; made in house; host or cells: E. coli
The experiment in a line: PPARγ-NCOR1 recruitment assay (TR-FRET, biotinylated NCOR1 ID2 peptide). Type of assay: biochemical. As to conditions: 80 nM Rosiglitazone, 3 hours, read-out: PPARG-NCOR recruitment assay EC50. The method, then:
PPARγ-NCOR1 Recruitment Assay:
Compound potency (EC50) and maximal extent of NCOR1 recruitment to PPARG were assessed a TR-FRET binding assay measuring association of a biotinylated NCOR1 ID2 peptide (Biotin-[…]-amide) to PPARG/RXRA LBD heterodimer. Specifically, a 20 microliters of TR-FRET master mix consisting of 2 nM WT PPARG LBD (E. coli expressed, His-TEV-Q203-Y477; Uniprot ID P37231-2), 2 nM WT RXRA LBD or mutant S427F RXRA LBD (E. coli expressed, Flag-TEV-E228-T462; […]. Mixtures were incubated for 3 hours and read in an EnVision plate reader (Perkin Elmer) with Ex/Em 615/665. To determine the potency (EC50) and extent of NCOR1 recruitment, TR-FRET ratios were normalized to the average ratio of DMSO control wells (0%) and to the average maximum ratio for positive control compound (T0070907 (2-chloro-5-nitro-N-4-pyridinyl-benzamide); defined as 100%) in CDD Vault and analyzed using the Levenberg-Marquardt algorithm.
T2 sequence (O75376 2251-2273 partner, one chain of several): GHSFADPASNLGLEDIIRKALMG

Molecule `N#Cc1ccc(Cl)c(-c2cc(=O)c3c(F)c(C4COC4)c(F)cc3[nH]2)c1` [Example 45, 4-chloro-3-(5,7-difluoro-6-(oxetan-3-yl)-4-oxo-1,4-dihydroquinolin-2-yl)benzonitrile] displayed an inhibition at 0.1 µM in assay [1] of 66%. For the same molecule, the concentration giving a half-maximal response (EC50) in assay [2] and in assay [3] was 100 to 1000 nM each time.
For the molecule `Cc1ccc(-c2c(F)cc3[nH]c(-c4cc(C#N)ccc4Cl)cc(=O)c3c2F)cn1` [Example 46, 4-chloro-3-(5,7-difluoro-6-(6-methylpyridin-3-yl)-4-oxo-1,4-dihydroquinolin-2-yl)benzonitrile], at 0.1 µM the inhibition in assay [1] was 80%. Further, the concentration giving a half-maximal response (EC50) in assay [2] and in assay [3] was 100 to 1000 nM each time.
`Cn1ccc(-c2c(F)cc3[nH]c(-c4cc(C#N)ccc4Cl)cc(=O)c3c2F)n1` [Example 47, 4-chloro-3-(5,7-difluoro-6-(1-methyl-1H-pyrazol-3-yl)-4-oxo-1,4-dihydroquinolin-2-yl)benzonitrile]: the inhibition at 0.1 µM in assay [1] worked out at 66%. Moreover, the half-maximal effective concentration (EC50) in assay [2] and in assay [3] was 100 to 1000 nM each time.
As to `CC(C)(O)Cn1cc(-c2c(F)cc3[nH]c(-c4cc(C#N)ccc4Cl)cc(=O)c3c2F)cn1` [Example 48, 4-chloro-3-(5,7-difluoro-6-(1-(2-hydroxy-2-methylpropyl)-1H-pyrazol-4-yl)-4-oxo-1,4-dihydroquinolin-2-yl)benzonitrile], the inhibition at 0.1 µM in assay [1] was 47%. Moreover, the EC50 in assay [2] and in assay [3] was 1000 to 10000 nM throughout.
As to `N#Cc1ccc(Cl)c(-c2cc(=O)c3c(F)c(-c4ccncc4F)c(F)cc3[nH]2)c1` [Example 49, 4-chloro-3-(5,7-difluoro-6-(3-fluoropyridin-4-yl)-4-oxo-1,4-dihydroquinolin-2-yl)benzonitrile], the inhibition at 0.1 µM in assay [1] was 52%. For the same molecule, the EC50 in assay [2] and in assay [3] was 100 to 1000 nM each time.
Molecule `N#Cc1ccc(Cl)c(-c2cc(=O)c3c(F)c(-c4cnc(C(F)(F)F)nc4)c(F)cc3[nH]2)c1` [Example 50, 4-chloro-3-(5,7-difluoro-4-oxo-6-(2-(trifluoromethyl)pyrimidin-5-yl)-1,4-dihydroquinolin-2-yl)benzonitrile] registered an inhibition at 0.1 µM in assay [1] of 80%. The EC50 in assay [2] and in assay [3] was 100 to 1000 nM in each case.
Consider `N#Cc1ccc(Cl)c(-c2cc(=O)c3c(F)c(-c4ccnc(C(F)F)c4)c(F)cc3[nH]2)c1` [Example 51, 4-chloro-3-(6-(2-(difluoromethyl)pyridin-4-yl)-5,7-difluoro-4-oxo-1,4-dihydroquinolin-2-yl)benzonitrile], for which the inhibition at 0.1 µM in assay [1] worked out at 56%. In addition, the concentration giving a half-maximal response (EC50) in assay [2] and in assay [3] was 100 to 1000 nM in each case.
Regarding `CN(C)CCn1cc(-c2c(F)cc3[nH]c(-c4cc(C#N)ccc4Cl)cc(=O)c3c2F)cn1` [Example 52, 4-chloro-3-(6-(1-(2-(dimethylamino)ethyl)-1H-pyrazol-4-yl)-5,7-difluoro-4-oxo-1,4-dihydroquinolin-2-yl)benzonitrile], testing at 0.1 µM in assay [1] gave an inhibition of 29%. For the same molecule, the EC50 in assay [2] and in assay [3] was 1000 to 10000 nM throughout.
Consider `N#Cc1ccc(Cl)c(-c2cc(=O)c3c(F)c(-c4ccnc(C(F)(F)F)c4)c(F)cc3[nH]2)c1` [Example 53, 4-chloro-3-(5,7-difluoro-4-oxo-6-(2-(trifluoromethyl)pyridin-4-yl)-1,4-dihydroquinolin-2-yl)benzonitrile], for which, in assay [1], 0.1 µM produced 36% inhibition. The EC50 in assay [2] and in assay [3] was 100 to 1000 nM each time.
In assay [1], `N#Cc1ccc(Cl)c(-c2cc(=O)c3c(F)c(-c4cc[nH]c(=O)c4)c(F)cc3[nH]2)c1` [Example 54, 4-chloro-3-(5,7-difluoro-4-oxo-6-(2-oxo-1,2-dihydropyridin-4-yl)-1,4-dihydroquinolin-2-yl)benzonitrile] registered an inhibition at 0.1 µM of 20%. Besides, the concentration giving a half-maximal response (EC50) in assay [2] and in assay [3] was 100 to 1000 nM throughout.
In assay [1], `N#Cc1ccc(Cl)c(-c2cc(=O)c3c(F)c(-c4ccc(C(F)(F)F)cn4)c(F)cc3[nH]2)c1` [Example 55, 4-chloro-3-(5,7-difluoro-4-oxo-6-(5-(trifluoromethyl)pyridin-2-yl)-1,4-dihydroquinolin-2-yl)benzonitrile] had an inhibition at 0.1 µM of 65%. The EC50 in assay [2] and in assay [3] was 100 to 1000 nM in each case.
`N#Cc1ccc(Cl)c(-c2cc(=O)c3c(F)c(-c4ccc5c(c4)NC(=O)C5)c(F)cc3[nH]2)c1` [Example 56, 4-chloro-3-(5,7-difluoro-4-oxo-6-(2-oxoindolin-6-yl)-1,4-dihydroquinolin-2-yl)benzonitrile]: testing at 0.1 µM in assay [1] gave an inhibition of 26%. Besides, the EC50 in assay [2] and in assay [3] was 100 to 1000 nM in each case.
Regarding `COCc1c(F)cc2[nH]c(-c3cc(C#N)ccc3Cl)cc(=O)c2c1F` [Example 57, 4-chloro-3-(5,7-difluoro-6-(methoxymethyl)-4-oxo-1,4-dihydroquinolin-2-yl)benzonitrile], testing at 0.1 µM in assay [1] gave an inhibition of 87%. The EC50 in assay [2] and in assay [3] was 100 to 1000 nM each time.
In the case of `N#Cc1ccc(Cl)c(-c2cc(=O)c3c(F)c(-c4cnn(C(F)(F)F)c4)c(F)cc3[nH]2)c1` [Example 58, 4-chloro-3-(5,7-difluoro-4-oxo-6-(1-(trifluoromethyl)-1H-pyrazol-4-yl)-1,4-dihydroquinolin-2-yl)benzonitrile], the inhibition at 0.1 µM in assay [1] came to 88%. Besides, the concentration for a half-maximal effect (EC50) in assay [2] and in assay [3] was 100 to 1000 nM in each case.
Take `N#Cc1ccc(Cl)c(-c2cc(=O)c3c(F)c(-c4ccc5c(c4)C(=O)NC5)c(F)cc3[nH]2)c1` [Example 59, 4-chloro-3-(5,7-difluoro-4-oxo-6-(3-oxoisoindolin-5-yl)-1,4-dihydroquinolin-2-yl)benzonitrile]: in assay [1], the inhibition at 0.1 µM is 42%. Also, the half-maximal effective concentration (EC50) in assay [2] and in assay [3] was 10 to 100 nM throughout.
In assay [1], `Cc1cnc(-c2c(F)cc3[nH]c(-c4cc(C#N)ccc4Cl)cc(=O)c3c2F)cn1` [Example 60, 4-chloro-3-(5,7-difluoro-6-(5-methylpyrazin-2-yl)-4-oxo-1,4-dihydroquinolin-2-yl)benzonitrile] showed an inhibition at 0.1 µM of 80%. The concentration giving a half-maximal response (EC50) in assay [2] and in assay [3] was 100 to 1000 nM in each case.
On to `N#Cc1ccc(Cl)c(-c2cc(=O)c3c(F)c(-c4ccc(C(F)F)cn4)c(F)cc3[nH]2)c1` [Example 61, 4-chloro-3-(6-(5-(difluoromethyl)pyridin-2-yl)-5,7-difluoro-4-oxo-1,4-dihydroquinolin-2-yl)benzonitrile], for which testing at 0.1 µM in assay [1] gave an inhibition of 70%. In addition, the EC50 in assay [2] and in assay [3] was 100 to 1000 nM throughout.
For the molecule `N#Cc1ccc(Cl)c(-c2cc(=O)c3c(F)c(-c4cn[nH]c4)c(F)cc3[nH]2)c1` [Example 62, 4-chloro-3-(5,7-difluoro-4-oxo-6-(1H-pyrazol-4-yl)-1,4-dihdroquinolin-2-yl)benzonitrile], the inhibition at 0.1 µM in assay [1] amounted to 40%. In addition, the EC50 in assay [2] and in assay [3] was 100 to 1000 nM in each case.
